These results are taken from patent US20160222014A1, “COMPOUNDS FOR REGULATING FAK AND/OR SRC PATHWAYS” (ASANA BIOSCIENCES, LLC, priority 2013, published 2016).

Where only a bound is given, the exact number is not on record here.

The target of this test is T1, recombinant human FAK1 (Homo sapiens, UniProt Q05397).
T1 construct: fused on or other part: N-terminal 6xHis tag
T1 sequence (Q05397 422-680 limits assumed): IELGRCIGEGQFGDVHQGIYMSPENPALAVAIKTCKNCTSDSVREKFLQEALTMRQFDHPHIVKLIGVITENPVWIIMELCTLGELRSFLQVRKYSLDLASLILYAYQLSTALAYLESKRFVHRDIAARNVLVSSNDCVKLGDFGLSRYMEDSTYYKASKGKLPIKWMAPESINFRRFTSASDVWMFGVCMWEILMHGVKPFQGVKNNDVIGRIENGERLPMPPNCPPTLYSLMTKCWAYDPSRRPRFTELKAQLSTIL
Kind of test: FAK1 HTRF assay. Type of test: biochemical. Put shortly: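 IC50 values derive from HTRF % inhibition (ratio 665/620 nm, Eu–anti-phosphotyrosine 0.1 nM, SA-APC 12 nM). The kinase step ran 45 min at room temperature, pairing 10 nM His-FAK1(692–end) from baculovirus with 0.5 μM gastrin Tyr87 biotin-peptide and a reagent at 10 μM final, pH 7.4. Compound dilutions began at 10 μM.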
A general note: Time-resolved FRET reads energy transfer from a long-lived donor to a nearby acceptor.
In the case of `Cn1cc(Nc2ncc3ccn(S(=O)(=O)c4cccc5cccnc45)c3n2)cn1` [Example 318], the IC50 was < 20 nM.
For `Cc1cc(Nc2ncc3cnn(S(=O)(=O)c4cccc5cccnc45)c3n2)ccc1N1CCNCC1` [Example 332], the half-inhibitory concentration (IC50) is < 20 nM.
In the case of `CN(c1ncccc1Cn1ncc2cnc(Nc3ccc4[nH]c(=O)[nH]c4c3)cc21)S(C)(=O)=O` [Example 142], the IC50 is < 20 nM.
For `O=S(=O)(c1cccc2nsnc12)n1ccc2cnc(Nc3ccc(N4CCNCC4)cc3)nc21` [Example 253] the value was < 20 nM; for `O=C1CCc2cc(Nc3ncc4ccn(S(=O)(=O)c5cccc6cccnc56)c4n3)ccc2N1` [Example 169], < 20 nM; for `CN(c1ncccc1Cn1ccc2cnc(Nc3ccc(N4CCCC4CO)cc3)nc21)S(C)(=O)=O` (centres unmarked) [Example 536], < 20 nM.
As for `O=C1CCc2cc(Nc3ncc4ccn(Cc5cccnc5N5CCCS5(=O)=O)c4n3)ccc2N1` [Example 216], the IC50 was < 20 nM.
Turning to `COc1cc(N2CCNCC2)ccc1Nc1cc2c(ccn2S(=O)(=O)c2cccc3cccnc23)cn1` [Example 330, N-(2-Methoxy-4-(piperazin-1-yl)phenyl)-1-(quinolin-8-ylsulfonyl)-1H-pyrrolo[3,2-c]pyridin-6-amine], the IC50 was < 20 nM.

Usually IC50 stands for the concentration needed to halve the response being measured.
